In patent US4026888A, “Certain derivatives of particular 3-thiolated cephalosporins” (priority 1976, dated 1977):
≈ marks a conversion by molar mass, not a printed value. Like-named read-outs stand apart in the source and are kept apart here.

Key:
[1] = test system: P. mirabilis A9900; test: IM PD50 in mice; format: in vivo; settings: Proteus mirabilis
Description: Comparative IM PD50 Values of
BL-S640 Derivatives in Mice

[2] = Mouse blood levels after oral administration; format: in vivo
Method: Mouse Blood Levels After Oral
Administration Of 100 mg./kg. Body Weight
The compounds were prepared in
Tween - carboxymethylcellulose
and 8 mice were used for each
Mouse Blood Levels After PO
Administration of 100 mg./kg. Body Weight
The compounds were prepared in Tween-CMC. BL-S640
The compounds were prepared in Tween-CMC. Values are the average of two

[3] = test system: Pr. mirabilis A9900; test: Antibiotic activity in nutrient broth (MIC); format: cell-based; settings: Proteus mirabilis, inoculum 10^-4, derivatives adjusted for BL-S640 content
Description: (§1) Antibiotic Activity In Nutrient Broth
(§2) ** Dilution of overnight broth culture.
(§3) Antibiotic Spectrum Nutrient Broth
(§4) Antibiotic Spectrum in Nutrient Broth

[4] = test system: Ent. cloacae A9657; test: Antibiotic activity in nutrient broth (MIC); format: cell-based; settings: derivatives adjusted for BL-S640 content
Description: as §1, §2, §3, §4

[5] = test system: K. pneumoniae A9977; test: Antibiotic activity in nutrient broth (MIC); format: cell-based; settings: Klebsiella pneumoniae, inoculum 10^-4, derivatives adjusted for BL-S640 content, read-out: MIC
Description: as §1, §2, §3, §4

[6] = test system: S. aureus BX1633 A9606; test: Antibiotic activity in nutrient broth (MIC); format: cell-based; settings: derivatives adjusted for BL-S640 content
Description: as §1, §2, §3, §4

[7] = test system: K. pneumoniae A15130; test: Antibiotic activity in nutrient broth (MIC); format: cell-based; settings: derivatives adjusted for BL-S640 content
Description: as §1, §2, §3, §4

[8] = test system: Ent. cloacae A9659; test: Antibiotic activity in nutrient broth (MIC); format: cell-based; settings: derivatives adjusted for BL-S640 content
Description: as §1, §2, §3, §4

[9] = test system: Ser. marcescens A20019; test: Antibiotic activity in nutrient broth (MIC); format: cell-based; settings: Serratia marcescens, derivatives adjusted for BL-S640 content
Description: as §1, §2, §3, §4

[10] = test system: Ent. cloacae A9656; test: Antibiotic activity in nutrient broth (MIC); format: cell-based; settings: Enterobacter cloacae, derivatives adjusted for BL-S640 content
Description: as §1, §2, §3, §4

[11] = test system: Ps. aeruginosa A9843A; test: Antibiotic activity in nutrient broth (MIC); format: cell-based; settings: Pseudomonas aeruginosa
Description: as §1, §2, §3, §4

[12] = test system: E. coli Juhl A15119; test: Antibiotic activity in nutrient broth (MIC); format: cell-based; settings: derivatives adjusted for BL-S640 content
Description: as §1, §2, §3, §4

[13] = test system: Sal. enteritidis A9531; test: Antibiotic activity in nutrient broth (MIC); format: cell-based; settings: inoculum 10^-4, derivatives adjusted for BL-S640 content
Description: as §1, §2, §3, §4

[14] = Urinary recovery after IM administration to rats; format: in vivo; settings: rat, urine, 50 mg/kg, IM 50 mg./kg., read-out: Urinary Recovery, Percentage of Administered Dose Recovered
Method: Urinary Recovery After IM
Administration of 50 and 10 mg./kg. to Rats
The compounds were prepared in 0.01% phosphate buffer. BL-S640 was used as
Urinary Recovery after IM
Administration of 50 mg./kg. to Rats
(§5) The compounds were prepared in 0.01% phosphate buffer.

[15] = test system: Str. pyogenes A9604; test: Antibiotic activity in nutrient broth (MIC); format: cell-based; settings: 45% AAB + 5% serum + 50% broth, derivatives adjusted for BL-S640 content
Description: as §1
* 45% AAB+ 5% serum+ 50% broth listed above.
as §2, §3
* 45% AAB + 5% serum + 50% broth
as §4
*45% AAB + 5% serum + 50% broth listed above.

[16] = Mouse blood levels after intramuscular administration; format: in vivo; settings: IM 10 mg./kg.
Method: Mouse Blood Levels After Intramuscular Administration
of 10 mg./kg. Body Weight
The compounds were dissolved in 0.01% phosphate buffer.
Mouse Blood Levels After IM
Administration of 10 mg./kg. Body Weight
The compounds were prepared in 0.01% phosphate
as §5

[17] = test system: P. mirabilis A9900; test: Oral PD50 in mice; format: in vivo; settings: oral, mice treated at 1 and 3.5 hours post-challenge
[18] = mouse, blood, im, 10 mg/kg, Example 3, average of 3 experiments, read-out: Blood Levels
[19] = mouse, blood, im, 10 mg/kg, Table III, 0.01% phosphate buffer, read-out: Mouse Blood Levels

For `N[C@@H](C(=O)N[C@@H]1C(=O)N2C(C(=O)O)=C(CSc3cnn[nH]3)CS[C@H]12)c1ccc(O)cc1` [BL-S640, 7-[D-α-amino-α-(p-hydroxyphenyl)acetamido]-3-(1,2,3-triazol-5-ylthiomethyl)-3-cephem-4-carboxylic acid, reference compound], the ED50 [1] was 1.6 mg/kg, the “Blood Levels” value ([2]; Example 3, PO 100 mg./kg., 1 hr, Tween-CMC, average of two experiments) was 42400 ng/mL and the “Blood Level” value ([2]; Table II, oral 100 mg./kg., 0.5 hr, Tween-carboxymethylcellulose, 8 mice, 100 mg/kg, 30 min) was 57400 ng/mL. For the same compound, the “Blood Level” value ([2]; Table II, oral 100 mg./kg., 1 hr, Tween-carboxymethylcellulose, 8 mice, 100 mg/kg, 60 min) was 47000 ng/mL, the “Blood Level” value ([2]; Table II, oral 100 mg./kg., 2 hr, Tween-carboxymethylcellulose, 8 mice, 100 mg/kg, 120 min) was 29500 ng/mL and the “Blood Level” value ([2]; Table II, oral 100 mg./kg., 3.5 hr, Tween-carboxymethylcellulose, 8 mice, 100 mg/kg, 210 min) was 10900 ng/mL. The concentration at 0.5 h ([2]; mouse, blood, po, 100 mg/kg, Example 3, PO 100 mg./kg., 0.5 hr, Tween-CMC, average of two experiments, read-out: Blood Levels) was 48700 ng/mL, the concentration at 2 h ([2]; mouse, blood, po, 100 mg/kg, Example 3, PO 100 mg./kg., 2 hr, Tween-CMC, average of two experiments, read-out: Blood Levels) was 24000 ng/mL and the concentration at 3.5 h ([2]; mouse, blood, po, 100 mg/kg, Example 3, PO 100 mg./kg., 3.5 hr, Tween-CMC, average of two experiments, read-out: Blood Levels) was 10100 ng/mL. It also gave a concentration at 0.5 h ([2]; mouse, blood, po, 100 mg/kg, Table II, oral 100 mg./kg., 0.5 hr, Tween-carboxymethylcellulose, 8 mice, read-out: Blood Level) of 50500 ng/mL, a concentration at 1 h ([2]; mouse, blood, po, 100 mg/kg, Table II, oral 100 mg./kg., 1 hr, Tween-carboxymethylcellulose, 8 mice, read-out: Blood Level) of 39000 ng/mL and a concentration at 2 h ([2]; mouse, blood, po, 100 mg/kg, Table II, oral 100 mg./kg., 2 hr, Tween-carboxymethylcellulose, 8 mice, read-out: Blood Level) of 24500 ng/mL. The concentration at 3.5 h ([2]; mouse, blood, po, 100 mg/kg, Table II, oral 100 mg./kg., 3.5 hr, Tween-carboxymethylcellulose, 8 mice, read-out: Blood Level) was 9600 ng/mL, the MIC [3] was 0.5 µg/mL (≈ 1.08 µM) and the MIC ([4]; Enterobacter cloacae, A9657, inoculum 10^-4, read-out: MIC) was 1 µg/mL (≈ 2.16 µM). The MIC ([4]; inoculum 10^-4) was 0.5 µg/mL (≈ 1.08 µM), the MIC [5] was 0.5 µg/mL (≈ 1.08 µM) and the MIC ([6]; Staphylococcus aureus, BX1633A9606, inoculum 10^-2, read-out: MIC) was 4 µg/mL (≈ 8.65 µM). For the same compound, the MIC ([6]; inoculum 10^-2) was 2 µg/mL (≈ 4.32 µM), the MIC ([7]; Klebsiella pneumoniae, A15130, inoculum 10^-4, read-out: MIC) was 2 µg/mL (≈ 4.32 µM) and the MIC ([7]; inoculum 10^-4) was 1 µg/mL (≈ 2.16 µM). For the same compound, the MIC ([8]; Enterobacter cloacae, A9659, inoculum 10^-4, read-out: MIC) was 63 µg/mL (≈ 136 µM), the MIC ([8]; inoculum 10^-4) was 32 µg/mL (≈ 69.2 µM) and the MIC ([9]; A20019, inoculum 10^-4) was > 125 µg/mL. For the same compound, the MIC ([9]; A20019, inoculum 10^-4, read-out: MIC) was 63 µg/mL (≈ 136 µM), the MIC ([10]; A9656, inoculum 10^-4) was > 125 µg/mL and the MIC ([10]; A9656, inoculum 10^-4, read-out: MIC) was 63 µg/mL (≈ 136 µM). For the same compound, the MIC [11] was > 125 µg/mL, the MIC ([12]; Escherichia coli, JUHLA15119, inoculum 10^-4, read-out: MIC) was 1 µg/mL (≈ 2.16 µM) and the MIC ([12]; inoculum 10^-4) was 0.5 µg/mL (≈ 1.08 µM). For the same compound, the MIC ([13]; Salmonella enterica, ENTERITIDIS, read-out: MIC) was 0.25 µg/mL (≈ 0.541 µM), the MIC [13] was 0.13 µg/mL (≈ 0.281 µM) and the dose excreted at 6 h ([14]; 0-6 hr) was 44.2%. For the same compound, the dose excreted at 24 h ([14]; 0-24 hr) was 47.5%, the dose excreted at 24 h ([14]; 6-24 hr) was 3.3% and the MIC ([15]; Streptococcus pyogenes, A9604, inoculum 10^-3, read-out: MIC) was 0.06 µg/mL. For the same compound, the MIC ([15]; inoculum 10^-3) was 0.03 µg/mL, the “Blood Levels” value ([16]; Example 2, 1 hr, 0.01% phosphate buffer, 16 or 32 mice) was 9500 ng/mL and the concentration at 0.25 h [16, 18] was 12700 ng/mL. For the same compound, the concentration at 0.5 h ([16]; mouse, blood, im, 10 mg/kg, Example 3, 0.5 hr, average of 3 experiments, read-out: Blood Levels) was 11500 ng/mL, the concentration at 1 h ([16]; mouse, blood, im, 10 mg/kg, Example 3, 1 hr, average of 3 experiments, read-out: Blood Levels) was 8000 ng/mL and the concentration at 1.5 h [16, 18] was 5700 ng/mL. For the same compound, the concentration at 0.25 h [16, 19] was 16300 ng/mL, the concentration at 1.5 h [16, 19] was 6300 ng/mL and the ED50 ([17]; Proteus mirabilis, A9900, po, 3.5 h, read-out: PD50) was 7.2 mg/kg. It also gave a PD50 [17] of 9.6 mg./kg./treatment.
